Holding throughout (experiment): NCI-60 cell line screen, 48 h
Assay [1] has as its system HS 578T breast.
Assay [2] relates to MDA-MB-231 breast.
Assay [3] relates to UACC-257 melanoma.
Assay [4] has as its system ACHN renal.
Assay [5] has as its system OVCAR-8 ovarian.
Assay [6] relates to UO-31 renal.
For assay [7], the system named is SK-MEL-5 melanoma.
Assay [8] relates to OVCAR-5 ovarian.
The subject of assay [9] is SK-MEL-2 melanoma.
For assay [10], the system named is RPMI-8226 leukemia.

Drawing on PubChem BioAssay (NCI), this text covers GI50 and TGI for eleven compounds.

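All cell lines were grown in 96-well plates and treated with compound for 48 hours. GI50 = concentration required for 50% inhibition of growth. The concentration for full growth arrest is given as TGI.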

Turning to `CCN(CC)CC(C)Nc1ccc([N+](=O)[O-])c2sc3ccccc3c(=O)c12` (centres undefined), the GI50 is 2.72 µM in assay [1]; 2.16 µM in assay [2]; 1.68 µM in [3]; 0.895 µM in assay [4]; 2.58 µM in assay [5]; 1 µM in [6]. For the same compound, the results for the GI50 in assay [7], in assay [8] and in assay [9] were 1.08 µM, 3.63 µM and 1.94 µM, respectively. The TGI was 13.4 µM in assay [1]; 9.09 µM in assay [2]; 4.15 µM in assay [3]; 4.3 µM in assay [4]; over 100 µM in assay [5]; 3.29 µM in assay [6]. Further, the figures for the TGI in assay [7], in [8] and in assay [9] were 2.26 µM, over 100 µM and 5.04 µM, respectively.
With `O=S(=O)(O)c1ccc2cccc(N=Nc3c(O)ccc4ccccc34)c2c1`, the TGI in assay [1], in [2], in assay [3], in assay [4], in [5] and in assay [6] was over 100 µM throughout. The TGI in [7], in assay [8] and in assay [9] was over 100 µM each time.
`CCS(=O)(=O)Nc1ccc(Nc2c3ccccc3nc3ccccc23)c(OC)c1`: the TGI came to 16.9 µM in assay [3]; 7.71 µM in [5]; 6.34 µM in [6]; 8.24 µM in assay [10]; 12.9 µM in [7]; 19.4 µM in [8]. The compound further returned a TGI in assay [9] of 18.8 µM.
As to `O=C(N/N=C(/c1ccccc1)C(F)(F)F)c1ccncc1`, the TGI in assay [1], in [5], in [6], in assay [10], in [7] and in [8] was over 100 µM in each case. The compound also yielded a TGI in [9] of over 100 µM.
With `ONc1ncnc2nc[nH]c12`, the TGI in [3], in assay [4], in assay [5], in assay [6], in [10] and in [7] was over 100 µM throughout. Further, the TGI in [8] and in [9] was over 100 µM in each case.
Take `CCOC(=O)C1(C(=O)OCC)Nc2cccnc2N(C)N1`: the TGI in assay [1] is over 100 µM; in assay [2], 40.4 µM; in assay [3] it was 32.3 µM; in assay [5], 40 µM; in assay [6] it was 31.8 µM; in [10] it was 40.8 µM. Besides, the TGI amounted to 34.2 µM in [7] and 37 µM in assay [9].
Regarding `CCOC(=O)CSc1nc(N)c2c(-c3ccc(OC)c(OC)c3)c3c(nc2n1)CCCC3`, the TGI in assay [1] was 35.6 µM; in [2], over 100 µM; in [3], over 100 µM; in assay [4], over 100 µM; in assay [5] it was 87.4 µM; in [6], over 100 µM. For the same compound, the TGI in assay [10], in assay [7] and in assay [8] was over 100 µM in each case.
`CCOC(=O)c1nc2ccc(Cl)cc2c2c1Cc1ccccc1-2`: the TGI in assay [3], in assay [4], in assay [5], in assay [6], in assay [10] and in assay [7] was over 100 µM in each case. The TGI in assay [8] and in assay [9] was over 100 µM throughout.
On to `N=c1c2c(C(N)=O)cn(C3OC(CO)C(O)C3O)c2ncn1O` (centres undefined), for which the TGI in assay [1] is 7.91 µM; in assay [3], 0.901 µM; in assay [4], 0.311 µM; in assay [5], 0.607 µM; in [6], over 20.6 µM; in assay [7] it was 0.174 µM. Also, the values for the TGI in assay [8] and in [9] were 1.3 µM and 2.33 µM, respectively.
Consider `O=C(CCCCCCC(=O)Nc1ccc(N(CCCl)CCCl)cc1)NO`, for which the GI50 in assay [1] was 5.66 µM; in [2], 6.99 µM; in assay [3] it was 2.27 µM; in assay [4], 1.09 µM; in assay [5], 1.79 µM; in assay [6], 1.82 µM. Further, the GI50 in [10] was 3.02 µM; in assay [7], 1.33 µM; in [8] it was 2.56 µM. In addition, the TGI is over 100 µM in assay [1]; 52.4 µM in assay [2]; 14.1 µM in assay [3]; 4.86 µM in [4]; 21 µM in assay [5]; 13 µM in [6]. In addition, the TGI in assay [10] was over 100 µM; in [7], 2.92 µM; in [8] it was 30.6 µM.
For the compound `COc1cc(/C=C/C(=O)c2ccc(NS(=O)(=O)c3cc([N+](=O)[O-])ccc3C)cc2)cc(OC)c1OC`, the TGI worked out at 7.39 µM in [2]; 21.9 µM in assay [3]; 15.9 µM in assay [4]; 7.97 µM in assay [5]; 30.4 µM in assay [6]; 6.21 µM in [10]. The TGI in assay [7] came to 15.4 µM; in [8], 11.8 µM; in [9], 8.47 µM.
